Publication PMC3215271 (European journal of pharmacology, 2011)
Where “and” joins values, the source holds several entries; their conditions need not be identical. Identical values can stand only once. Entries after “also recorded” stand apart in the source; their conditions may differ.

Tests used:
[1] = in vivo; cited from earlier work
[2] = test system: formalin-induced flinching behavior; conditions: formalin model; i.p.; ref Holtman et al., 2010b; cited from earlier work
mechanical hyperalgesia [3] = conditions: chronic constriction injury; i.p.; ref Holtman et al., 2010b; cited from earlier work
rotarod performance [4] = conditions: ref Holtman et al., 2010b, cited from earlier work
[5] = target: T1, human serotonin(3) receptor (Homo sapiens, UniProt P46098); experiment: Competition radioligand binding, [3H]LY278584; conditions: for Ki: 5HT3
T1 sequence (P46098 24-478): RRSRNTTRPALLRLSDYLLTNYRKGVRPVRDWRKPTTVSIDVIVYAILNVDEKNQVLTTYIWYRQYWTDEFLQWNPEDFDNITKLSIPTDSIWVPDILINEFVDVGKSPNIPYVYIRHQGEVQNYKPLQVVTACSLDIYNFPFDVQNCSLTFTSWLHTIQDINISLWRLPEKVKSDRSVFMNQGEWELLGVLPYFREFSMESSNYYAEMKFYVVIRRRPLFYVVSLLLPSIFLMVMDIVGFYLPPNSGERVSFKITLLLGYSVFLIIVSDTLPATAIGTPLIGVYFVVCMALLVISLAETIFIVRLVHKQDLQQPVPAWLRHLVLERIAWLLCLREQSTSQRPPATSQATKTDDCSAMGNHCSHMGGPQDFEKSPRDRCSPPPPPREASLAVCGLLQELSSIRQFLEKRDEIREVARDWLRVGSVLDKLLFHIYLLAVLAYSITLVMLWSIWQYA

[6] = target: rat γ-aminobutyric acid(A) receptor; experiment: Competition radioligand binding, [3H]muscimol, rat brain membranes; conditions: GABAA; [3H]muscimol 5 nM
[7] = target: rat γ-aminobutyric acid(B)(1b,2) receptor (Rattus norvegicus, UniProt Q9Z0U4); experiment: Competition radioligand binding, [3H]CGP54626; conditions: GABAB; [3H]CGP54626 2 nM
rat κ-opioid receptor = rat κ-opioid receptor (Rattus norvegicus, UniProt P34975); experiment: Competition radioligand binding, [3H]U69593; conditions: 95% CI in parentheses
human μ-opioid receptor = human μ-opioid receptor (Homo sapiens, UniProt P35372); experiment: Competition radioligand binding, [3H]DAMGO; conditions: 95% CI in parentheses
[8] = test system: formalin-induced flinching behavior; experiment: Rodent model of inflammatory pain; assay type: in vivo, rat; conditions: for ED50 (95% CI): formalin test, i.p. 15 min prior to formalin, rat
mechanical hyperalgesia [9] = experiment: Chronic constriction nerve injury model of neuropathic pain; assay type: in vivo, rat
tail flick latency = experiment: Thermal acute nociception; assay type: in vivo, rat; conditions: for maximum possible effect: tail-flick
rotarod performance [10] = experiment: Motor coordination; assay type: in vivo, rat
[11] = test system: α4β2* nicotinic acetylcholine receptors; conditions: binding assays; ref Zhang et al., 2008; cited from earlier work
[12] = test system: nicotinic acetylcholine receptors mediating nicotine-evoked dopamine release; conditions: ref Zhang et al., 2008; cited from earlier work
[13] = test system: nicotinic acetylcholine receptor subtype; experiment: Agonist activity at nicotinic receptor subtypes in Xenopus oocytes; conditions: any nicotinic acetylcholine receptor subtype evaluated; data not shown
[14] = target: α7 nicotinic acetylcholine receptors (Rattus norvegicus, UniProt Q05941); experiment: Voltage clamp electrophysiology, cloned α7 nicotinic receptor in Xenopus oocytes; conditions: 95% CI in parentheses
[15] = target: α2β2 nicotinic acetylcholine receptor (Rattus norvegicus, UniProt P12389+P12390); conditions: 95% CI in parentheses
[16] = target: α2β4 nicotinic acetylcholine receptor (Rattus norvegicus, UniProt P12389+P12392); conditions: 95% CI in parentheses
[17] = target: α3β2 nicotinic acetylcholine receptor (Rattus norvegicus, UniProt P04757+P12390); conditions: 95% CI in parentheses
[18] = target: α3β4 nicotinic acetylcholine receptor (Rattus norvegicus, UniProt P04757+P12392); conditions: 95% CI in parentheses
[19] = target: α4β2 nicotinic acetylcholine receptors (Rattus norvegicus, UniProt P09483+P12390)
[20] = target: α4β4 nicotinic acetylcholine receptor (Rattus norvegicus, UniProt P09483+P12392); conditions: 95% CI in parentheses
[21] = target: α9α10 nicotinic acetylcholine receptors (Rattus norvegicus, UniProt P43144+Q9JLB5)
[22] = target: α1β1δε nicotinic acetylcholine receptor (Mus musculus, UniProt P02716+P04756+P09690+P20782); conditions: 95% CI in parentheses
[23] = target: α6/α3β4 nicotinic acetylcholine receptor (Rattus norvegicus, UniProt P04757+P12392+P43143); conditions: 95% CI in parentheses
[24] = target: α6/α3β2β3 nicotinic acetylcholine receptor (Rattus norvegicus, UniProt P04757+P12390+P12391+P43143); conditions: 95% CI in parentheses
[25] = chronic constriction injury paw, 3600 μg/kg i.p.

## α-conotoxin Vc1.1
[1]
  adverse effects: did not produce any adverse effects

## c1cncc([C@@H]2CCCN2)c1 [S(−) nornicotine]
[2]
  ED50: 1.5 (0.6–3.6) mg/kg
Mechanical hyperalgesia [3]
  ED50: 5.2 (3.1–8.5) mg/kg
Rotarod performance [4]; rotarod vs chronic constriction injury and formalin
  ED50 for motor impairment vs. analgesia, fold higher: 3–9 fold
Rotarod performance [4]; rotarod, motor impairment, i.p.
  ED50: 13.6 (9.2–19.9) mg/kg

## C(#Cc1cc(C#CCCC[n+]2cccc(-c3ccccc3)c2)c(C#CCCC[n+]2cccc(-c3ccccc3)c2)cc1C#CCCC[n+]1cccc(-c2ccccc2)c1)CCC[n+]1cccc(-c2ccccc2)c1.[Br-].[Br-].[Br-].[Br-] [ZZ-204G, 5,5′,5″, 5‴-(1,2,4,5-benzenetetrayl)tetrakis-[1-(3-phenylpyridinium)-4-pentyne] tetrabromide]
[5]; [3H]LY278584 0.3 nM, 95% CI in parentheses
  Ki: 2.23 µM
[5]; displacing [3H]LY27854
  Ki: 2.2 µM
[5]; 5HT3 binding, 95% CI in parentheses
  Hill Slope: 1.05 (0.73–1.37)
[6]
  Ki: > 10 µM
[7]
  Ki: > 10 µM
Rat κ-opioid receptor; κ-opioid binding
  Hill Slope: 0.95 (0.67–1.2)
Rat κ-opioid receptor; κ-opioid, [3H]U69593 0.3 nM
  Ki: 0.783 µM
Human μ-opioid receptor; μ-opioid binding
  Hill Slope: 1.1 (0.94–1.3)
Human μ-opioid receptor; μ-opioid, [3H]DAMGO 0.3 nM
  Ki: 0.659 µM
[8]; the first phase (0–10 min)
  ED50 (95% CI): 16.2 (2.9–90.3) μg/kg
[8]; the second phase (20–60 min)
  ED50 (95% CI): 2.12 (1.24 – 5.65) μg/kg
[8]; formalin vs chronic constriction injury
  greater potency against formalin-evoked inflammatory pain than neuropathic pain: ~ 50 fold
Mechanical hyperalgesia [9]; [25]
  maximum possible effect: 81.9±7.6%
  time maximum possible effect was maintained after administration: 240 min
  time to reach maximum possible effect: ≤ 60 min
Mechanical hyperalgesia [9]; chronic constriction injury, paw pressure test, mechanical hyperalgesia, i.p., rat
  ED50 (95% CL): 96.2 (35.7–255.3) μg/kg
Mechanical hyperalgesia [9]; chronic constriction injury, 3.6 μg/kg i.p.
  AUC0–120min (antihyperalgesic effect): 932.8±672.1
Mechanical hyperalgesia [9]; chronic constriction injury, 36 μg/kg i.p.
  AUC0–120min (antihyperalgesic effect): 1845.3±1008.0
Mechanical hyperalgesia [9]; chronic constriction injury, 360 μg/kg i.p.
  AUC0–120min (antihyperalgesic effect): 3126.6±840.9
Mechanical hyperalgesia [9]; chronic constriction injury, 3600 μg/kg i.p.
  AUC0–120min (antihyperalgesic effect): 6946.9±1632.2
Tail flick latency; 3.6, 36, 360 μg/kg i.p. vs saline
  antinociceptive effect in the tail-flick assay: not antinociceptive; also recorded: did not significantly differ from that of saline control
Tail flick latency; 3.6 μg/kg i.p.
  maximum possible effect: 8.4±4.6%
Tail flick latency; 36 μg/kg i.p.
  maximum possible effect: 6.2±1.75%
Tail flick latency; 360 μg/kg i.p.
  maximum possible effect: 15.6±2.4%
Rotarod performance [10]; naïve rats, 3,600 ug/kg
  motor effect at highest antihyperalgesic dose: significant motor effect
Rotarod performance [10]; rotarod performance, intact rats, i.p.
  ED50 (95% CI), motor incoordination: 1884 (942–3767) μg/kg
[11]
  affinity for α4β2* nicotinic acetylcholine receptors: poor affinity
[12]
  antagonism at nicotinic receptors mediating nicotine-evoked dopamine release: weak antagonist
[13]
  agonist activity: No agonist activity
[14]
  Hill Slope: 1.03 (0.48–1.6)
[14]; oocytes, acetylcholine 200 μM
  IC50: 0.0088 µM
[15]
  Hill Slope: 1.25 (0.98–1.5)
[15]; oocytes, acetylcholine 100 μM
  IC50: 2.33 µM
[16]
  Hill Slope: 1.36 (0.98–1.7)
[16]; oocytes, acetylcholine 100 μM
  IC50: 2.9 µM
[17]
  Hill Slope: 1.11 (0.28–1.9)
[17]; oocytes, acetylcholine 100 μM
  IC50: 0.75 µM
[18]
  Hill Slope: 1.56 (1.1–2.0)
[18]; oocytes, acetylcholine 100 μM
  IC50: 0.792 µM
[19]; 100 nM compound
  block of acetylcholine-induced currents: ~ 5% and < 5%
[19]; 95% CI in parentheses
  Hill Slope: 1.05 (0.73–1.4)
[19]; oocytes, acetylcholine 100 μM, 95% CI in parentheses
  IC50: 3.83 µM
[20]
  Hill Slope: 1.6 (0.99–2.2)
[20]; oocytes, acetylcholine 100 μM
  IC50: 1.73 µM
[21]; α9α10, 10 nM compound, 0.01 µM
  inhibition of the acetylcholine response: 93.9 ± 1.4% and ~ 95%
[21]; α9α10, 100 nM compound, n=3, data not shown
  effect on current with Ca++ in buffer replaced with equimolar Ba++: abolished the current
[21]; α9α10, 95% CI in parentheses
  Hill Slope: 0.84 (0.59–1.1)
[21]; α9α10, washout of compound
  reversibility of block: Block was reversed upon washout
[21]; κ- and μ-opioid receptors vs α9α10
  potency at κ- and μ-opioid receptors, fold less than at α9α10: 1000 fold
[22]
  Hill Slope: 1.61 (1.2–2.1)
[22]; oocytes, acetylcholine 10 μM
  IC50: 0.12 µM
[23]
  Hill Slope: 1.2 (0.73–1.8)
[23]; oocytes, acetylcholine 100 μM
  IC50: 6.14 µM
[24]
  Hill Slope: 0.44 (0.33–0.56)
[24]; oocytes, acetylcholine 100 μM
  IC50: 0.0982 µM
